These results are taken from publication PMC9739180, “Discovery of a Flavonoid FM04 as a Potent Inhibitor to Reverse P-Glycoprotein-Mediated Drug Resistance in Xenografts and Improve Oral Bioavailability of Paclitaxel” (International Journal of Molecular Sciences, 2022).

Read-outs that look alike come from different tables or passages of the source. A value given as a limit tells only on which side of the number the result lay.

The target of data set [1] is T1, P-gp (Homo sapiens, UniProt P08183). As to the kind of experiment: Reversal of P-gp-mediated MDR in LCC6MDR cells (MTS cell viability, 5 days). Here is the method:
To each well of a 96-well plate, 6500 cells of LCC6MDR were seeded in 180 μL supplemented medium. A 10 µL compound (FD18, 14a, FM04 or FM327) at different concentrations (0, 62.5, 125, 250, 500 and 1000 nM) was added to the well. […] The final volume in each well was 200 µL and the 96-well plate was incubated at 37 °C for 5 days. The cell viability was determined using the MTS assay as reported previously. The % of cell survival, IC50 of anticancer drugs towards the LCC6MDR and the EC50 of modulators were analyzed using nonlinear regression in Prism 5.0 (Prism version 5.0, GraphPad software, San Diego, CA, USA).

The target in data set [2] is T1, P-gp. Nature of the data set: Transepithelial transport of PTX, Caco-2 transwell assay. The format is in vitro ADME. Here is the method: Figure 7 Mechanistic study of FM04 to increase the oral PTX absorption. (A) transepithelial permeability of PTX in Caco-2 transwell assay. When confluent monolayer of Caco2 cells was formed on the transwell, the permeability of PTX (10 μM) was studied with or without FM04 (10 μM). For apical to basolateral transport (A to B), compound was added at the apical side (donor) and samples of the medium collected at the basal side (receiver) at 0, 20, 40, 60, 80, 100 and 120 min and vice versa for basal to apical transport (B to A). The PTX level was determined using UPLC-MS/MS. The relative % of PTX was presented as mean ± standard error of mean. N = 2–3 independent experiments. Impact of FM04 on PTX metabolism. […] After incubation, the levels of PTX, metabolites 6α-hydroxpaclitaxel (6α-OHP) and p3′-hydroxpaclitaxel (p3-OHP) were determined by HPLC-MS/MS. (B) changes in PTX. […]
Caco-2 cells in between passage number 21 and 30 were used for the experiment, 1 × 10^5 cells/cm^2 Caco-2 cells were seeded in Costar 6-well transwell plate (Corning Inc). […] The integrity of cell monolayers was evaluated on the day of experiments by measuring the trans-epithelial electrical resistance (TEER) of the cell monolayers. […] Drug transport was evaluated at 37 °C by incubating the cells in media containing PTX (10 μM) with or without FM04 (10 μM) at the donor chamber and samples collected at the receiver chamber. […]
Background: Caco-2 monolayers are a common model of the intestinal barrier.

Data set [3] relates to human melanoma MDA435/LCC6MDR xenograft. Nature of the data set: In vivo efficacy in human melanoma MDA435/LCC6MDR xenograft. On the set-up: species or system Balb/c nude mice. Here is the method: The treatment was given every other day for 12 times (q2d × 12) from day 0 to day 22. There were four treatment groups including (1) control: no treatment, (2) PTX alone (12 mg/kg, I.V.), (3) PTX alone (24 mg/kg, I.V.) and (4) combination treatment: FM04 (28 mg/kg, I.P.,−1 h) + PTX (12 mg/kg, I.V.).
Balb/c nude mice were subcutaneously xenografted with LCC6MDR. The treatment groups included (1) control—no treatment, (2) PTX (12 mg/kg, I.V.) alone, (3) PTX (24 mg/kg, I.V.) alone and (4) co-treatment: FM04 (28 mg/kg, I.P.) was injected 1 hr prior to PTX (12 mg/kg, I.V.). (A) tumor volume and (B) body weight were monitored throughout the treatment. The treatment was given to mice every other day for 12 times (q2d × 12) and indicated as an arrow. […] (C) Tumor-inhibition % on day 34 and tumor-doubling time after each treatment were determined. Number of animal deaths was monitored during the treatment. For the tumor volume at each time point, statistical analysis was conducted by one-way-ANOVA between co-treatment group and PTX alone treatment, * p < 0.05. /: not applicable.
The LCC6MDR tumor xenograft model was studied previously in [24]. Female Balb/c nude mice (4–6 week-old) were subcutaneously inoculated with 5 × 10^7cells of P-gp overexpressing LCC6MDR and allowed to develop tumor. Treatment began when a solid tumor of 150–200 mm^3 was formed. Tumor-bearing mice were randomized into four groups with 7–8 mice in each group: (1) control group—no treatment, (2) PTX alone (12 mg/kg, I.V.), (3) PTX alone (24 mg/kg, I.V.) and (4) co-treatment: FM04 (28 mg/kg, I.P.) was injected 1 hr before PTX (12 mg/kg, I.V.) administration. Tumor growth was measured by an electronic caliper on the injection day and the tumor volume was calculated using the following formula: Estimated tumor volume (mm^3)=l×w^2/2

T1 sequence (P08183 whole entry): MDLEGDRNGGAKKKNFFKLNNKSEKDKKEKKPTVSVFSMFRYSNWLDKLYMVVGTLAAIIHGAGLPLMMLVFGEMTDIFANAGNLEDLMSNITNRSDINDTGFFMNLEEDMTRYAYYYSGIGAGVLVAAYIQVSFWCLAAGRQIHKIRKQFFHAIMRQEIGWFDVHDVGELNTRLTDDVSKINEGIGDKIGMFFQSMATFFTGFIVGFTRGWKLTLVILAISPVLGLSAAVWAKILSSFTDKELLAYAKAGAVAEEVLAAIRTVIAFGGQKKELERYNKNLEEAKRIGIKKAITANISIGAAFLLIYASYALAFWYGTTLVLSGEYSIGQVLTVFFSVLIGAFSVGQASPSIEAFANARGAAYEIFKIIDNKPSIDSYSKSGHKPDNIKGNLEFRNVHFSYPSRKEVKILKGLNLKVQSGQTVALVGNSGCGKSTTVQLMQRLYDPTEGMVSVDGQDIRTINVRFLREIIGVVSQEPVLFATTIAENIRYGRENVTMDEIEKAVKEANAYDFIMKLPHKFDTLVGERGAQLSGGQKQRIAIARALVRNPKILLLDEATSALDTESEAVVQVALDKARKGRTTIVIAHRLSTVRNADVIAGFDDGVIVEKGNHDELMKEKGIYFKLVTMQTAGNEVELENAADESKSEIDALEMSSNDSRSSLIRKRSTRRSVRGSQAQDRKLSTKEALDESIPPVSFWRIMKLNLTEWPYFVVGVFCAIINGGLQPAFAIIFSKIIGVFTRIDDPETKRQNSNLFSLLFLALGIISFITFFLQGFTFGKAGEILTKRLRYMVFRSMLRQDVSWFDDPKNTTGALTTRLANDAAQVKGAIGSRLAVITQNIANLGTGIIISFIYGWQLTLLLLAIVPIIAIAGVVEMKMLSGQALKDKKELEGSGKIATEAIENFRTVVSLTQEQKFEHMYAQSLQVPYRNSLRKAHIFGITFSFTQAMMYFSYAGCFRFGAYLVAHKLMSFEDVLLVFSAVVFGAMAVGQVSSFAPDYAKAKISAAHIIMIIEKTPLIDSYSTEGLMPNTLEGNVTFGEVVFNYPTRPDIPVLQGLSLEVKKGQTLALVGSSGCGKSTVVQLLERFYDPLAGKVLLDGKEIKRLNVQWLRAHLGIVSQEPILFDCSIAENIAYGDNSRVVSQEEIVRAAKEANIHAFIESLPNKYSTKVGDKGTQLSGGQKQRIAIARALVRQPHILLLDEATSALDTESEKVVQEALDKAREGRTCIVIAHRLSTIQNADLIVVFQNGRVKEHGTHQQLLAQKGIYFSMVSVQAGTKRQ

For `O=c1cc(-c2ccc(OCCOCCNCc3ccccc3)cc2)oc2ccccc12` [FM04, 2-(4-(2-(2-(benzylamino)ethoxy)ethoxy)phenyl)-4H-chromen-4-one], the EC50 (usually the concentration giving half of the maximal effect) in data set [1] was 83 ± 7 nM; in data set [1] (EC50 for P-gp modulation, range over PTX reversal and DOX accumulation in LCC6MDR), 64 to 83 nM; in data set [1] (EC50 for chemosensitizing LCC6MDR towards vinblastine, vincristine, DOX, daunorubicin and mitoxantrone, range over the five drugs) it was 61 to 153 nM; in data set [1] (EC50 needed for reversing MDR in LCC6MDR cells: DOX, LCC6MDR), 153 ± 39 nM; in data set [1] (EC50 needed for reversing MDR in LCC6MDR cells: Daunorubicin, LCC6MDR), 88 ± 52 nM; in data set [1] (EC50 needed for reversing MDR in LCC6MDR cells: Mitoxantrone, LCC6MDR), 64 ± 27 nM. Besides, the EC50 in data set [1] (EC50 needed for reversing MDR in LCC6MDR cells: PTX, LCC6MDR, PTX resistance) worked out at 83 nM; in data set [1] (EC50 needed for reversing MDR in LCC6MDR cells: Vinblastine, LCC6MDR) it was 61 ± 13 nM; in data set [1] (EC50 needed for reversing MDR in LCC6MDR cells: Vincristine, LCC6MDR) it was 83 ± 11 nM. Also, the “EC50 needed for reversing MDR in LCC6MDR cells: PTX” value in data set [1] was 83 nM. In data set [1], the “fold higher potency than FD18 in reversing PTX resistance” value turned out to be 1.8 fold. For the same compound, the “decrease of PTX transport from B to A” value in data set [2] (PTX 10 μM + FM04 10 μM) came out at 17%.
As to `CC(=O)O[C@H]1C(=O)[C@@]2(C)[C@H]([C@H](OC(=O)c3ccccc3)[C@]3(O)C[C@H](OC(=O)[C@H](O)[C@@H](NC(=O)c4ccccc4)c4ccccc4)C(C)=C1C3(C)C)[C@]1(OC(C)=O)CO[C@@H]1C[C@@H]2O` [PTX, paclitaxel], in data set [1], the “RF, LCC6MDR + 1 μM FM04” value is listed as 34.1 and the “RF, LCC6MDR + DMSO” value worked out at 1.0. Moreover, in data set [3] (PTX 12 mg/kg I.V., q2d × 12), the “Tumor doubling time (Td)” value stood at 10 days. In data set [3] (PTX 24 mg/kg I.V.), the “fold reduction in tumor volume” value is listed as 2.5 fold and the weight loss is above 15%. Also, in data set [3] (PTX 24 mg/kg I.V., q2d × 12), the “No. of animal death” value is on record as 4 out of 6. In addition, the “direction of transepithelial transport of PTX” value in data set [2] (PTX 10 µM without FM04) was “only pumped from B to A, but not A to B”.
